Values quoted from earlier work as cited in patent publication US20140079751A1, “METHOD OF USING COMPOSITE OF SILVER NANOPARTICLES AND NANOSILICATE PLATELETS TO INHIBIT GROWTH OF SILVER-RESISTANT BACTERIA” (priority 2010, published 2014).

Test system: silver-resistant Escherichia coli (J53pMG101)
Details: background statement, Escherichia coli strain J53 pMG101

silver ions
silver ion concentration the strain can survive: more than 1 mM
